# Assay results as given in US12582681B2, “Fermented milk product for administration in canids such as dogs, and uses thereof” (priority 2019, dated 2026).
# Where two headings read alike, the source gives them in different places.
# Key:
# [1] = tested on: Lactobacillus reuteri CECT 9859; experiment: Broth microdilution MIC (MRS and LSM medium); assay type: cell-based; settings: for Category (LSM) / Category (MRS): against EFSA (2018) breakpoints; on Category (LSM): key: S, susceptible; R, resistant; on Category (MRS): key: S, susceptible; R, resistant
# S. aureus ATCC25923 = experiment: Broth microdilution MIC, control strain; assay type: cell-based; settings: for Category: against CLSI values; on Category: key: S, susceptible; R, resistant
# [2] = Limosilactobacillus reuteri, CECT9859, 24 h, LSM medium, anaerobic, 37° C., 24 h, read-out: MIC
# [3] = Limosilactobacillus reuteri, CECT9859, 24 h, MRS medium, anaerobic, 37° C., 24 h, read-out: MIC
# [4] = Staphylococcus aureus, ATCC25923, MH medium, control strain, read-out: MIC
# [5] = Staphylococcus aureus, ATCC25923
Molecule,Category (LSM) ([1]; LSM medium),"MIC [1, 2] [µg/mL]","MIC [1, 3] [µg/mL]",Category (MRS) ([1]; MRS medium),Category (S. aureus ATCC25923; MH medium),MIC (S. aureus ATCC25923; [4]) [µg/mL],MIC (S. aureus ATCC25923; [5]) [µg/mL],"MIC ([1]; Limosilactobacillus reuteri, CECT9859, 24 h) [µg/mL]",Susceptibility of the strain ([1]; MRS and LSM),"MIC ([1]; LSM medium, anaerobic, 37° C., 24 h) [µg/mL]","MIC ([1]; MRS medium, anaerobic, 37° C., 24 h) [µg/mL]","MIC (S. aureus ATCC25923; MH medium, control strain) [µg/mL]"
CC1(C)S[C@@H]2[C@H](NC(=O)[C@H](N)c3ccccc3)C(=O)N2[C@H]1C(=O)O [Ampicillin],S,0.25,0.25,S,S,0.125,–,–,–,–,–,–
O=C(N[C@H](CO)[C@H](O)c1ccc([N+](=O)[O-])cc1)C(Cl)Cl [Chloramphenicol],S,4,4,S,S,4,–,–,–,–,–,–
CCC[C@@H]1C[C@@H](C(=O)N[C@@H]([C@H]2O[C@H](SC)[C@H](O)[C@@H](O)[C@H]2O)[C@H](C)Cl)N(C)C1 [Clindamycin],S,0.25,0.25,S,S,–,0.125,–,–,–,–,–
CC[C@H]1OC(=O)[C@H](C)[C@@H](O[C@H]2C[C@@](C)(OC)[C@@H](O)[C@H](C)O2)[C@H](C)[C@@H](O[C@@H]2O[C@H](C)C[C@H](N(C)C)[C@H]2O)[C@](C)(O)C[C@@H](C)C(=O)[C@H](C)[C@@H](O)[C@]1(C)O [Erythromycin],S,–,0.25,S,S,–,0.125,0.125,–,–,–,–
NC[C@H]1O[C@H](O[C@H]2[C@H](O)[C@@H](O[C@H]3O[C@H](CO)[C@@H](O)[C@H](N)[C@H]3O)[C@H](N)C[C@@H]2N)[C@H](O)[C@@H](O)[C@@H]1O [Kanamycin],S,64,512,R,S,2,–,–,–,–,–,–
[H]/N=C(/N)N[C@H]1[C@H](O)[C@@H](O)[C@H](O[C@@H]2O[C@@H](C)[C@](O)(C=O)[C@H]2O[C@@H]2O[C@@H](CO)[C@H](O)[C@@H](O)[C@@H]2NC)[C@@H](N/C(N)=N\[H])[C@@H]1O [Streptomycin],S,16,128,R,–,2,–,–,–,–,–,–
CN(C)[C@@H]1C(O)=C(C(N)=O)C(=O)[C@@]2(O)C(O)=C3C(=O)c4c(O)cccc4[C@@](C)(O)[C@H]3C[C@@H]12 [Tetracycline],S,8,4,S,S,1,–,–,–,–,–,–
CN[C@H](CC(C)C)C(=O)N[C@H]1C(=O)N[C@@H](CC(N)=O)C(=O)N[C@H]2C(=O)N[C@H]3C(=O)N[C@H](C(=O)N[C@H](C(=O)O)c4cc(O)cc(O)c4-c4cc3ccc4O)[C@H](O)c3ccc(c(Cl)c3)Oc3cc2cc(c3O[C@@H]2O[C@H](CO)[C@@H](O)[C@H](O)[C@H]2O[C@H]2C[C@](C)(N)[C@H](O)[C@H](C)O2)Oc2ccc(cc2Cl)[C@H]1O [Vancomycin],R,512,> 512,R,S,–,1,–,resistant,–,–,–
Gentamicin,S,–,–,R,S,–,–,–,–,2,16,0.125
